Assay results taken from US8580799B2 (priority 2008, dated 2013).

Experiment: Measurement of logP values by HPLC on reversed phase columns (EEC directive 79/831 Annex V.A8)
Assay type: physicochemical
Conditions: method [b]: LC-MS at pH 2.7 with 0.1% formic acid in water and acetonitrile, linear gradient 10% to 95% acetonitrile

For `Cc1nsnc1C(=NOCc1cccc(NCCC2CCCCC2)n1)c1ccccc1` [Example 37], which logp is on record?
The logp was 3.46^[b].
